Source: patent US20030157101A1, “Immunogenic ALK peptides” (priority 2001, published 2003)
Values joined by “and” are separate entries in the source; they are usually repeats but may differ in a detail not shown here. Equal entries are not always repeated. “Also recorded” adds a separate entry of the source.

Columns and labels:
[1] = system: HLA-A*0201 monochain transgenic (HHD) mice; assay: In vivo immunogenicity of ALK-derived peptides in HHD mice (51Cr-release on peptide-pulsed RMA-S/HHD cells); conditions: for R/T HHD mice (responder versus tested mice): 100 μg peptide s.c. in IFA, responder = specific lysis at least 15% above lysis of unloaded RMA-S/HDD; for % lysis of peptide-loaded RMA-S/HHD cells: E:T ratio 60:1, maximal lysis observed for each responder mouse
[2] = biological target: HLA-A*0201/peptide complexes (Homo sapiens, UniProt P04439, D140Y/D185E/D98H/E176V/E277Q/G131W/G231S/I119V/I121R/I166T/I218V/L300P/L318F/N151K/N90K/P208A/P217A/Q86G/Q94H/R138H/R169H/T345S); assay: HLA-A*0201/peptide complex stability on T2 cells (DC50); type: binding; conditions: 100 μM peptide overnight, Brefeldin A, 37° C.
Method: To assess the HLA-A*0201/peptide complex stability, T2 cells (10^6/ml) were incubated overnight with 100 μM of each peptide in serum free RPMI 1640 supplemented with 100 ng/ml of human β2m at 37° C. Cells were then washed four times to remove free peptides, incubated for 1 hr with 10 μg/ml of Brefeldin A (Sigma-Aldrich, France) in order to block cell surface expression of newly synthesized HLA-A*0201 molecules, washed and incubated at 37° C. for 0, 2, 4, 6, or 8 hours. Subsequently, cells were stained with anti-HLA-A2.1 mAb BB7.2. For each time point, peptide induced HLA-A*0201 expression was calculated as: mean fluorescence value of peptide incubated T2 cells/mean fluorescence value T2 cells in the absence of the peptide.

[3] = system: healthy donor PBLs; assay: Stimulation of ALK-specific CTLs from healthy donor PBLs; type: cell-based, human; conditions: three donors tested per peptide; lysis of peptide loaded T2 cells and NPM/ALK-positive lymphoma lines
Method: Blood was collected from HLA-A*0201 normal volunteer donors. PBMC were isolated from whole blood by Ficoll/Hypaque (Pharmacia, Uppsala, Sweden) density gradient centrifugation. Dendritic cells (DCs) were generated according to the protocol of Sallusto and Lanzavecchia (Sallusto F. et al., (1994) J Exp Med. 179: 1109-1118). Adherent monocyte-enriched peripheral blood mononuclear cells (PBMCs) were cultured in RPMI 1640 medium supplemented with 10% FCS, 20 ng/ml recombinant human interleukin (IL)-4 (R&D Systems, Minneapolis, Minn.) and 800 U/ml recombinant human granulocyte-macrophage colony-stimulating factor (GM-CSF) (Sandoz, Basel, Switzerland). On day 5 of culture, 10 ng/ml recombinant human tumor necrosis factor (TNF)-α (Knoll, Ludwigshafen, Germany) was added to the medium. After 40 hrs, the surface phenotype of monocyte-derived DCs was determined by single-color flow cytometry using the following mAbs: fluorescein-conjugated anti-CD1a ([…], Torino, Italy), anti-CD86 (CALTAG, Burlingame, Calif.), anti-CD83 (CALTAG, Burlingame, Calif.), anti-CD14 (Becton Dickinson) and rhodamine-conjugated anti-CD80 (Becton Dickinson). DCs were used to prime autologous PBL as follows. DCs were pulsed with 10 μM peptide for 2 hrs at 37° C., irradiated at 30 Gy and added to autologous PBLs at a ratio variable from 3:1 to 6:1 (PBL:DC). PBLs (36×10^6 total) were cultured at 1,5×10^6 cells/2ml of Culture Medium (CM: 50% RPMI 1640/50% X-VIVO (BioWhittaker, […], Mass.)) supplemented with 10% of heat-inactivated autologous plasma and 10 ng/ml IL-7 (R&D Systems, Minneapolis, Minn.) in the presence of autologous peptide-loaded DCs. At day 10-12 of culture, lymphocytes were restimulated with irradiated (30 Gy) autologous peptide-loaded monocytes in CM supplemented with 10% of heat-inactivated autologous plasma. After 24-48 hrs 10 IU/ml IL-2 (Chiron Co., Emeryville, Calif.) and 10 ng/ml IL-7 was added to the CM. Lymphocytes were then restimulated weekly in the same way. Starting from the forth round of stimulation, the specificity of the resulting T-cell lines was evaluated weekly in a cytolytic assay. When any specific activity was detected, CD8+ T-cells were isolated from the bulk culture by CD4+ cells negative depletion using mAb-coated beads (Dynal Dynabeads, Oxoid, Oslo, Norway) and the CTL lines were maintained in culture in RPMI 1640 containing 10% human AB serum supplemented with 50 U/ml IL-2 in the presence of irradiated (70 Gy) PBMCs as feeder. To prime ALK-specific lymphocytes, peptide-pulsed autologous dendritic cells (DCs) derived from peripheral blood mononuclear cells (PBMCs) were used after their in vitro maturation was confirmed by flow cytometric analysis of DC-specific cell surface markers. After a 3-4 week cycle of restimulation T lymphocyte specificity for ALK peptides was evaluated by determining antigen-restricted lysis of peptide loaded T2 cells (FIG. 1A) and NPM/ALK-positive lymphoma cell lines (FIG. 1B).

[4] = system: neuroblastoma cell line IMR-32; assay: 51Cr release lysis of HLA-A2.1+/ALK+ neuroblastoma cells by peptide-specific CTLs; type: cell-based, human; conditions: IMR-32, treated with INF-γ before use
Method: (§1) Cytolytic activity was measured in a conventional 4-hrs ^51Cr release assay. A 10-fold excess of unlabeled K562 cells was added to offset NK activity. Target cells and E:T ratio are indicated in each figure. Specific lysis was determined according to the following formula: % specific lysis=cpm (sample-spontaneous)/cpm (total-spontaneous)×100. HLA-A*0201 blocking of T-cell activity (lysis and/or citokine release) was performed by preincubating target cells with the anti-HLA-A2 mAb CR11.351. […] Because p280-89 and p376-85 peptides lie within the kinase domain, which is present in both native and translocated ALK, we used neuroblastoma cell lines as targets in cytotoxic experiments to further verify the natural processing of these two epitopes.

[5] = system: ALCL lymphoma cell lines SU-DHL1 and SUP-M2; conditions: cited from earlier work
[6] = system: anti-ALK specific CTLs; assay: IFN-γ release assay with anti-ALK CTL lines (ELISA); type: cell-based, human; conditions: for IFN-γ released by p280-89 CTLs: p280-89 loaded autologous LCL; for Peptide concentration giving maximal IFN-γ production: titration on T2 cells, peptide-specific CTL lines
[7] = system: FM3 (melanoma), HCT-116 (colon carcinoma), MCF-7 (breast carcinoma); assay: 51Cr release lysis of HLA-A2.1+/ALK- tumor lines by peptide-specific CTLs; type: cell-based, human; conditions: FM3, HCT-116, MCF-7
Method: (§2) Cytolytic activity was measured in a conventional 4-hrs ^51Cr release assay. A 10-fold excess of unlabeled K562 cells was added to offset NK activity. Target cells and E:T ratio are indicated in each figure. Specific lysis was determined according to the following formula: % specific lysis=cpm (sample−spontaneous)/cpm (total−spontaneous)×100. HLA-A*0201 blocking of T-cell activity (lysis and/or citokine release) was performed by preincubating target cells with the anti-HLA-A2 mAb CR11.351.
(§3) Thus, it can be concluded that ALK peptide induced CTLs efficiently lyse lymphoma targets, in a HLA-A2 restricted fashion, by relevant antigen-specific recognition.

[8] = system: ALCL lymphoma cell lines SU-DHL1 and SUP-M2; assay: 51Cr release lysis of NPM/ALK-expressing ALCL cell lines by peptide-specific CTLs; type: cell-based, human; conditions: SU-DHL1 and SUP-M2, HLA-A2.1+
Method: as §2, §3

[9] = system: SK-N-SH (HLA-A2.1-/ALK+) and NB-5 (HLA-A2.1+/ALK-) cell lines; assay: 51Cr release lysis of control neuroblastoma lines by peptide-specific CTLs; type: cell-based, human
Method: as §1

[10] = biological target: T1, HLA-A*0201 molecules on TAP-deficient T2 cells (human); assay: T2 cells loaded with 100 uM peptide, Brefeldin A, flow cytometry with BB7.2 over 0-8 h
T1 construct: Peptide-receptive class I molecule on T2 cells; also called HLA-A2.1; HLA-A2
Source text: Subsequently, cells were stained with anti-HLA-A2.1 mAb BB7.2.

[11] = biological target: T1, HLA-A*0201 molecules on TAP-deficient …; assay: T2 cell HLA-A*0201 stabilisation, 100 uM peptide, flow cytometry with mAb BB7.2; mean of 4 experiments ± SEM
Method: T2 cells were incubated with 100 μM of peptide in serum-free RPMI 1640 supplemented with 5 μg/ml of human β₂m (Fluka, Buchs, Germany) for 18 hrs at 37° C.

DC50, half-life of disassociation of HLA-A*02.01/peptide complexes [2] [h]	FI (Fluorescence Index) [11]	Molecule	R/T HHD mice (responder versus tested mice) [1]	Donor response to peptide stimulation (specific CD8 reactivity) [3]	% lysis of peptide-loaded RMA-S/HHD cells [1]	other results
2 to 4		ALPIEYGPLV (listed as Homo sapiens) [p456-65]	2/6	At least one out of the three donors tested were found to be responders		
4 to 6		SLTANMKEV (listed as Homo sapiens) [p621-29]	2/6	No specific CD8 reactivity was detected	63% and 53%	
4 to 6		VLLWEIFSL (listed as Homo sapiens) [p377-85]	3/6	At least one out of the three donors tested were found to be responders		
4 to 6		AMLDLLHVA (listed as Homo sapiens) [p282-90]	3/6	No specific CD8 reactivity was detected	80% and 56% and 50%	
	3 ratio (sample / irrelevant-peptide control)	VLLWEIFSL [ALK peptide p377-85 (VLLWEIFSL)]				
	4.2 ratio (sample / irrelevant-peptide control)	ALPIEYGPLV (Downstream of the kinase domain) [ALK peptide p456-65 (ALPIEYGPLV)]				

The remaining lines, values behind:

Molecule	DC50, half-life of disassociation of HLA-A*02.01/peptide complexes [2] [h]	FI (Fluorescence Index) [11]	R/T HHD mice (responder versus tested mice) [1]	Donor response to peptide stimulation (specific CD8 reactivity) [3]	% lysis of peptide-loaded RMA-S/HHD cells [1]	other results
SLAMLDLLHV (listed as Homo sapiens) [p280-89]			3/6	At least one out of the three donors tested were found to be responders		Lysis of HLA-A2.1+/ALK+ neuroblastoma cells by peptide-specific CTLs [4]: recognize and kill; also recorded: efficiently lysed; CTL cytotoxicity against NPM/ALK-positive lymphoma cell lines [5]: stimulate CTL cytotoxicity; IFN-γ released by p280-89 CTLs ([6]; donor three, 5 μM peptide): 750 IU/ml; IFN-γ released by p280-89 CTLs ([6]; donor two, 5 μM peptide): 445 IU/ml; Peptide concentration giving maximal IFN-γ production [6]: 10 nM; Lysis of HLA-A2.1+/ALK- tumor lines by peptide-specific CTLs [7]: no activity was detected; also recorded: No lysis above background level; Lysis of NPM/ALK-expressing ALCL cell lines by peptide-specific CTLs [8]: efficiently recognize and lyse; also recorded: killed these tumor lines; Lysis of HLA-A2.1-/ALK+ or HLA-A2.1+/ALK- neuroblastoma lines by peptide-specific CTLs [9]: No lysis was detected
GVLLWEIFSL (listed as Homo sapiens) [p376-85]			3/6	At least one out of the three donors tested were found to be responders	24% and 15%	Lysis of HLA-A2.1+/ALK+ neuroblastoma cells by peptide-specific CTLs [4]: efficiently lysed; Lysis of HLA-A2.1+/ALK+ neuroblastoma cells by peptide-specific CTLs ([4]; listed as p375-86): recognize and kill; IFN-γ released by p376-85 CTLs ([6]; donor one, p376-85 pulsed T2 cells, 5 μM peptide): 674 IU/ml; Peptide concentration giving maximal IFN-γ production [6]: 100 nM; Lysis of HLA-A2.1+/ALK- tumor lines by peptide-specific CTLs [7]: no activity was detected; also recorded: No lysis above background level; Lysis of NPM/ALK-expressing ALCL cell lines by peptide-specific CTLs [8]: efficiently recognize and lyse; also recorded: killed these tumor lines; Lysis of HLA-A2.1-/ALK+ or HLA-A2.1+/ALK- neuroblastoma lines by peptide-specific CTLs [9]: No lysis was detected
LAMLDLLHV (listed as Homo sapiens) [p281-89]			2/6	No specific CD8 reactivity was detected	42% and 34%	
LAMLDLLHV [ALK peptide p281-89 (LAMLDLLHV)]		3.5 ratio (sample / irrelevant-peptide control)				DC50 (half-life of dissociation of HLA-A*0201/peptide complexes) [10]: 2 hs (hours)
AMLDLLHVA [ALK peptide p282-90 (AMLDLLHVA)]		5.4 ratio (sample / irrelevant-peptide control)				
SLAMLDLLHV (Lies within the ALK kinase domain) [ALK peptide p280-89 (SLAMLDLLHV)]		5.6 ratio (sample / irrelevant-peptide control)				DC50 (half-life of dissociation of HLA-A*0201/peptide complexes) [10]: 4 hs (hours)
GVLLWEIFSL (also called p375-86) [ALK peptide p376-85 (GVLLWEIFSL)]		2.8 ratio (sample / irrelevant-peptide control)				DC50 (half-life of dissociation of HLA-A*0201/peptide complexes) [10]: 6 hs (hours)
